# From the supplement of paper PMC5770543
# ± gives the standard deviation.
# Columns and labels:
# [1] = molecular target: Toxoplasma gondii RH tachyzoites; test: EC50 growth inhibition (48 h luciferase)
# [2] = tested on: Plasmodium falciparum 3D7; test: EC50 growth inhibition (60 h, SYBR Green); conditions: stage: ring-stage start
# [3] = tested on: Toxoplasma gondii RH tachyzoites; test: % growth inhibition vs DMSO (48 h luciferase); higher = more inhibition; conditions: 10 µM
# [4] = tested on: Plasmodium falciparum 3D7; test: % inhibition of schizont-to-ring transition vs DMSO; higher = more inhibition
# In short: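 Schizont-to-ring transition inhibition compares new ring formation with that in vehicle controls. Synchronised P. falciparum schizonts (about 40–42 hours post-invasion, 1% parasitemia, 2.5% hematocrit, AlbuMAX-supplemented RPMI) were exposed to 1, 3 or 10 µM compound, after which rings were counted by Hoechst 33342 flow cytometry across three experiments.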
# [5] = tested on: Toxoplasma gondii RH tachyzoites; test: plaque count per well; higher = less inhibition; extreme values may be limits of the assay; conditions: 10 µM; 8-10 days
# Method: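 T. gondii RH tachyzoites expressing firefly luciferase were grown in HFF monolayers for 48 h with compound. % growth inhibition at 10 µM and EC50 (2-fold dilutions from 10 µM) were read by luminescence relative to 1% DMSO; EC50 listed as 10 (not determined, <80% inhibition) is left out. Plaque assays: 50 tachyzoites per well with 10 µM compound for 8-10 days, giving plaque count and area by crystal violet/ImageJ. Egress: median time to egress after 1 µM A23187 ionophore following 24 h of 10 µM compound (DMSO ~1.8 min; >10 = no egress within 10 min).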
# 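Wherever % growth inhibition vs DMSO (48 h luciferase) is given: tested in triplicate wells of 96-well plates on confluent HFF monolayers, with 1% DMSO wells as negative control in four replicates.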
Compound,EC50 growth inhibition [1] [nM],EC50 growth inhibition [2] [nM],% growth inhibition [3] [%],% inhibition of schizont-to-ring transition ([4]; 1 µM) [%],% inhibition of schizont-to-ring transition ([4]; 3 µM) [%],% inhibition of schizont-to-ring transition ([4]; 10 µM) [%],plaque count per well [5]
Cc1cc(N2CCCC2)nc(Nc2ccc(NC(=O)CCc3ccccc3)cc2)n1,102,139,96.07 ± 0.93,55.6,62.1,67.5,
CCOC(=O)C1=C(c2ccccc2)N=c2sc(=Cc3cc(C)n(-c4ccc(F)cc4)c3C)c(=O)n2C1c1cccc(OC)c1OC (centres undefined),1500,493,92.3 ± 2,0.392,3.17,14.4,
O=C(Cc1ccccc1)NC(c1ccc(Cl)cc1)c1c(O)ccc2ccccc12 (centres undefined),1020,1880,100.2 ± 0.43,0.685,26.1,67.8,
CCOC(=O)c1cnc2ccc(Cl)cc2c1NCCCN(C)C,2340,1020,82.2 ± 2.8,0.181,23.3,54.9,
COc1cc(C(=O)Nc2ccc(-c3nc4ccccc4[nH]3)cc2)cc(OC)c1OC,4730,788,91.42 ± 0.58,< 0,9.26,43.1,
CCc1ccc(Nc2cc(C)c3ccc(O)cc3n2)cc1,3050,286,97.8 ± 1.4,58.8,82.3,80.4,
COc1ccc(-c2nonc2NC(=O)c2cccc(Cl)c2)cc1OC,35.3,1170,84.3 ± 0.96,36.5,56.1,71,
COc1cc(CNCCc2ccc(Cl)cc2)cc(OC)c1O,5990,1780,51.4 ± 14,3.17,4.67,38.3,
Nc1nc(Nc2cccc(F)c2)nc2ccccc12,8210,1030,100.5 ± 0.22,15.3,31.5,62.7,
Cc1cc(N(C)C)nc(Nc2ccc(NC(=O)Nc3ccccc3)cc2)n1,1990,236,95.4 ± 1.2,41.8,56.5,71.1,
COc1ccc(Nc2nc(N/N=C/c3ccc(O)cc3)nc(Nc3ccc([N+](=O)[O-])cc3)n2)cc1,2630,1100,100.2 ± 0.27,20.8,44,63,
O=c1nc(C=Cc2ccc(Br)cc2)oc2ccccc12,116,1770,99.06 ± 0.14,15.3,24.2,54,
COc1ccc(C(O)(CCC(C)C)C(CN2CCOCC2)c2ccc(Cl)cc2)cc1 (centres undefined),4870,2090,100.9 ± 0.49,8.88,11.2,32.8,
CC(C)OCc1cc(CN2CCN(c3cccc(Cl)c3)CC2)c(O)c2ncccc12,1690,3170,81.6 ± 18,7.59,35.5,53.9,
Cc1ccc(NC(=O)Nc2cccc(Cl)c2)cc1F,1620,6570,98.51 ± 0.27,< 0,2.62,34.3,
O=C(NCC1Cc2cccc(-c3ccncc3)c2O1)c1csc2c1CCCC2 (centres undefined),845,4480,94.12 ± 0.48,9.1,14.2,20.6,
COc1ccc2nc(C)cc(Nc3ccc(Cl)cc3)c2c1,556,477,99.3 ± 1,24.7,39.5,56.8,
O=c1nc(C=Cc2ccc(Cl)cc2)oc2ccccc12,32.4,999,94.2 ± 2.2,16.8,24.1,56.2,
N=c1n(CCN2CCCCC2)c2ccccc2n1CC(=O)c1ccc(Cl)c(Cl)c1,1820,237,99.931 ± 0.065,36.2,57.9,80.4,
N=c1n(CCN2CCCCC2)c2ccccc2n1CC(O)c1cccc(Br)c1 (centres undefined),4580,624,85.2 ± 2.2,< 0,35.2,64,
COc1cccc(NC(=O)Cn2c(C)c(C#N)c3ccccc32)c1,905,231,94.39 ± 0.68,56.8,75.8,77.4,

Compound,EC50 growth inhibition [1] [nM],EC50 growth inhibition [2] [nM],% growth inhibition [3] [%],% inhibition of schizont-to-ring transition ([4]; 1 µM) [%],% inhibition of schizont-to-ring transition ([4]; 3 µM) [%],% inhibition of schizont-to-ring transition ([4]; 10 µM) [%],plaque count per well [5]
CC(C)(C)CC(C)(C)NCC(O)COc1ccc(Cl)cc1Cl (centres undefined),2050,576,99.763 ± 0.02,22.6,40.4,78.1,
O=C(Nc1ccc(CN2CCOCC2)cc1)c1ccc(-c2cc(Cl)ccc2Cl)o1,5590,1230,81.1 ± 4.3,5.81,22.5,42.6,
CCCc1c(C)nc2ccccc2c1O,803,1010,87.69 ± 0.86,8.03,21.8,46.6,
Cc1sc(NC(=O)c2ccco2)c(C(c2cccnc2)N2CCC(Cc3ccccc3)CC2)c1C (centres undefined),1120,833,99.83 ± 0.14,6.59,41.7,62.4,
CCOC(=O)c1cnc2ccc(OC)cc2c1NCc1ccccc1,1400,6780,97.7 ± 1.4,42,45.3,59.1,
CCOc1ccc(Nc2c3ccccc3nc3ccccc23)cc1,884,529,100.1 ± 0.26,45.1,58.5,68.8,
COc1ccc(/C=C2/SC(Nc3ccc(F)cc3)=NC2=O)c(OC)c1,7.69,880,92 ± 2.3,23.5,31.5,54.2,
CCOc1ccc2nc(C)cc(Nc3ccc(N(C)C)cc3)c2c1,1440,410,98.02 ± 0.4,44.9,65.7,69.3,
CCOc1ccc(/C=C/c2nc(=O)c3ccccc3o2)cc1,21.7,657,97.94 ± 0.17,13.3,41.5,69.3,
O=C(Nc1ccc(N2CCN(Cc3ccccc3)CC2)cc1)c1cccs1,183,1870,91.82 ± 0.81,22.9,21.2,39.3,
COc1ccc(-c2nc(N3CCN(C(=O)C4CCCCC4)CC3)c3c4c(sc3n2)CCCC4)cc1,3080,4080,86 ± 3.8,10.6,17.7,44.9,
CCOC(=O)C1=CN(C)C=C(C(=O)OCC)C1c1cc(Br)c(OCC)c(OC)c1,2590,1040,95.51 ± 0.24,41.2,58.3,58.9,
COc1ccc(Nc2cc(C)nc(NCc3ccccc3)n2)cc1,653,115,98.67 ± 0.18,30.2,34.6,60,
COCCNCC(O)Cn1c2ccc(Cl)cc2c2cc(Cl)ccc21 (centres undefined),6290,700,99.95 ± 0.13,5.35,32.1,67.1,
CCn1nc(-c2ccc(C(=O)OC)cc2)nc2c(=O)n(C)c(=O)nc1-2,2200,107,100.5 ± 0.19,30.7,37.6,53.3,
COc1ccc2c(=O)cc(C(Cl)(Cl)Cl)oc2c1,1130,2900,84.4 ± 9.2,37.9,45,55.2,
Cc1ccnc(NC(c2cccc(OCc3ccccc3)c2)c2ccc3cccnc3c2O)c1 (centres undefined),786,886,98.51 ± 0.34,17.5,41.1,62.9,
O=C(Nc1ccccc1O)c1ccc(Oc2cccc(C(=O)Nc3ccccc3O)c2)cc1,1670,1840,99.35 ± 0.37,0.57,30,46.7,
Cc1ccc(Cl)cc1N1CCN(CCCNC(=O)C2CCN(c3nc4ccccc4[nH]3)CC2)CC1,3240,920,98.63 ± 0.9,37.8,50.8,60.5,
CCOC(=O)c1cn(CC)c2cc(N(C)CCc3ccc(OC)c(OC)c3)c(F)cc2c1=O,910,210,97.69 ± 0.15,36.8,60.5,66.7,
CN(C)c1ccc(C=Cc2nc(=O)c3ccccc3o2)cc1,264,522,99.12 ± 0.036,44.1,60.6,70.1,

Compound,EC50 growth inhibition [1] [nM],EC50 growth inhibition [2] [nM],% growth inhibition [3] [%],% inhibition of schizont-to-ring transition ([4]; 1 µM) [%],% inhibition of schizont-to-ring transition ([4]; 3 µM) [%],% inhibition of schizont-to-ring transition ([4]; 10 µM) [%],plaque count per well [5]
Cc1ccc(S(=O)(=O)c2c(COC(=O)c3cccc(C)c3)c(-c3ccccc3)nn2C)cc1,2060,,99.44 ± 0.48,< 0,1.67,32.1,
CCOc1ccc(-n2cc(-c3ccccc3)c3c(SCc4cc(C)ccc4C)ncnc32)cc1,3170,,86.5 ± 1.3,1.01,7.47,15.8,
O=[N+]([O-])c1ccc(C=NNc2nc3ccccc3[nH]2)cc1,,663,< 0,29,43.8,49,33
O=C(Nc1ccc(Br)cc1)Nc1cccc(Cl)c1,3770,,96.13 ± 0.57,24.1,22.5,58.1,
Cc1cc(N2CCN(C3CCCC3)CC2)n2c(nc3ccccc32)c1C#N,,878,< 0,33.3,39.3,51.3,30
COc1cccc(Nc2nc(N)c3ccccc3n2)c1,,1320,< 0,< 0,12.3,41.7,0
CCCN(CCC)CC(O)COc1ccccc1C(=O)Nc1ccccc1 (centres undefined),,420,< 0,33,65.6,73.5,25
COc1ccc(-c2nonc2NC(=O)c2cccc(C)c2)cc1OC,,628,3.28 ± 4.1,32.8,59,67.1,28
O=C(CCc1ccco1)NC1CCN(CC2(c3ccc(Cl)cc3)CCC2)CC1,,509,< 0,18.8,41,67.5,23
Clc1ccc2[nH]c3c(NCCCN4CCOCC4)ncnc3c2c1,,189,< 0,40.9,53.1,56.3,23
CCc1ccc(Nc2cc(C)nc3nc(C)nn23)cc1,,2280,< 0,7.01,30,50.7,27
COc1ccc(C(=O)NC(c2ccccc2Cl)c2cc(Cl)c3cccnc3c2O)cc1 (centres undefined),592,,96.55 ± 0.71,13.2,31.2,57.7,
CCOc1cc(Cl)c(C(C)NC(=O)c2cccc(OC)c2)cc1OCC (centres undefined),,316,< 0,42.4,76.9,78.7,25
OC(CNC1CCCCC1)Cn1c2ccccc2c2ccccc21 (centres undefined),,985,< 0,48.9,69,75.3,21
COc1ccc(-c2cc3c(SCC(=O)Nc4cc(C(F)(F)F)ccc4Cl)nccn3n2)cc1,,259,< 0,35.7,37.5,49.5,28
COc1ccc(C(=O)Nc2nonc2-c2ccc(OC)c(OC)c2)cc1Cl,,420,1.09 ± 1.9,35.7,67.3,69.4,20
COc1ccc(N2CCN(C(CNC(=O)CC(C)(C)C)c3ccc4c(c3)OCO4)CC2)cc1 (centres undefined),,1680,< 0,8.37,17.9,32.6,24
COc1ccc(OC)c(C2C3=C(CC(C)(C)CC3=O)N(c3ccc(Cl)c(Cl)c3)C3=C2C(=O)CC(C)(C)C3)c1,,7740,< 0,16.9,20.7,50.7,38
CCN1CCN(Cc2ccc(NC(=O)c3cc4ccc5cccnc5c4[nH]3)cc2)CC1,,161,< 0,36.2,49.2,55.2,31
O=C(Nc1cccc(C2=NCCN2)c1)Nc1cccc(C2=NCCN2)c1,,1840,7.82 ± 3.2,< 0,1.31,32.2,38
COc1ccccc1N1CCN(C(CNS(=O)(=O)c2ccc(Cl)cc2)c2cccnc2)CC1 (centres undefined),,2260,4.77 ± 8.3,16,20.5,49.3,34
